Where two headings read alike, the source gives them in different places.
Molecular target: T1, Chk1 (Homo sapiens, UniProt O14757)
T1 construct: purchased Upstate Biotechnology
T1 sequence (O14757 1-476): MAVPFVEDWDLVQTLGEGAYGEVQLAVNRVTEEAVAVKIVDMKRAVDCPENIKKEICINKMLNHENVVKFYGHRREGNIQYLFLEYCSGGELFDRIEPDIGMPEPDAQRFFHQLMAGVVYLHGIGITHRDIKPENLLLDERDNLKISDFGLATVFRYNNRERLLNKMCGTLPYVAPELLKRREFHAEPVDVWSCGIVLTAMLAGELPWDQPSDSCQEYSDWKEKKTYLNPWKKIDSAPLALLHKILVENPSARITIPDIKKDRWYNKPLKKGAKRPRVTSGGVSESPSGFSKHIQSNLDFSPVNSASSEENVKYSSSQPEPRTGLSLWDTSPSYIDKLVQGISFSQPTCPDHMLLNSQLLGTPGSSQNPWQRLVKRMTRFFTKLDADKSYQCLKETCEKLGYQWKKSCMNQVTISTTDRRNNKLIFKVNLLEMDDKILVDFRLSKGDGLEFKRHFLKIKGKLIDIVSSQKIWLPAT
Assay: Chk1 kinase assay: incorporation of γ-33P ATP into immobilized myelin basic protein
Type: biochemical
Conditions: read-out: Chk1 IC50
Outline: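 Read-out is scintillation counting of 33P incorporated into plate-bound myelin basic protein. Chk1 runs at 10 nM enzyme with 10 μM ATP, Chk2 at 20 nM with 30 μM ATP, each for 1 hour at room temperature. Duplicate points; IC50 taken as 50% activity reduction, Ki computed from IC50.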

[1] = Table 11, Chk1 only, class symbols A-D

Row | Structure (SMILES) | IC50 | IC50 (Table 11, Chk1 only) | also measured
1 | CNC(=O)c1nc(-c2cccc(C(=O)NCC(C)C)c2)cnc1N [Example 217, 3-amino-N-methyl-6-(3-{[(2-methylpropyl)amino]carbonyl}phenyl)pyrazine-2-carboxamide] | 1000 to 10000 nM | – | –
2 | CNC(=O)c1cc(-c2cccc(CNC3CCc4c(Cl)cccc43)c2)cnc1N (stereo not drawn) [Example 522, 2-amino-5-(3-{[(4-chloro-2,3-dihydro-1H-inden-1-yl)amino]methyl}phenyl)-N-methylpyridine-3-carboxamide] | – | 50 to 1000 nM | –
3 | Nc1ncc(-c2cccc(C(=O)NCc3cc(F)cc(F)c3F)c2)nc1C(=O)N[C@H]1CCCNC1 [Example 1030, 3-amino-N-[(3S)-piperidin-3-yl]-6-[3-({[(2,3,5-trifluorophenyl)methyl]amino}carbonyl)phenyl]pyrazine-2-carboxamide] | – | – | IC50 [1]: < 50 nM
4 | CNC(=O)c1nc(-c2cccc(C(=O)NCc3ccc(C(C)C)cc3)c2)cnc1N [Example 345, 3-amino-N-methyl-6-{3-[({[4-(1-methylethyl)phenyl]methyl}amino)carbonyl]phenyl}pyrazine-2-carboxamide] | 50 to 1000 nM | – | –
5 | Nc1ncc(-c2cccc(CNC(=O)c3ccc4ccccc4c3)c2)nc1C(=O)N[C@H]1CCCNC1 [Example 893, 3-amino-6-(3-{[(naphthalen-2-ylcarbonyl)amino]methyl}phenyl)-N-[(3S)-piperidin-3-yl]pyrazine-2-carboxamide] | – | – | IC50 [1]: < 50 nM
6 | Nc1ncc(-c2cccc(C(=O)NCc3ccccc3)c2)nc1C(=O)NC1CCNCC1 [Example 564, 3-amino-6-(3-{[(phenylmethyl)amino]carbonyl}phenyl)-N-piperidin-4-ylpyrazine-2-carboxamide] | – | 50 to 1000 nM | –
7 | CNC(=O)c1nc(-c2cccc(S(C)(=O)=O)c2)cnc1N [Example 234, 3-amino-N-methyl-6-[3-(methylsulfonyl)phenyl]pyrazine-2-carboxamide] | 1000 to 10000 nM | – | –
8 | Nc1ncc(-c2cccc(CN[C@H]3CCc4ccccc43)c2)nc1C(=O)NCCCCCO [Example 538, 3-amino-6-(3-{[(1S)-2,3-dihydro-1H-inden-1-ylamino]methyl}phenyl)-N-(5-hydroxypentyl)pyrazine-2-carboxamide] | – | 1000 to 10000 nM | –
9 | COc1cc(CNC(=O)c2cccc(-c3cnc(N)c(C(=O)N[C@H]4CCCNC4)n3)c2)cc(OC)c1 [Example 1041, 3-amino-6-{3-[({[3,5-bis(methyloxy)phenyl]methyl}amino)carbonyl]phenyl}-N-[(3S)-piperidin-3-yl]pyrazine-2-carboxamide] | – | – | IC50 [1]: < 50 nM
10 | Nc1ncc(-c2cccc(C(=O)N[C@H]3c4ccccc4C[C@@H]3O)c2)nc1C(=O)N[C@H]1CCCCN(Cc2ccccc2)C1 [Example 969, 3-amino-6-[3-({[(1S,2S)-2-hydroxy-2,3-dihydro-1H-inden-1-yl]amino}carbonyl)phenyl]-N-[(3S)-1-(phenylmethyl)azepan-3-yl]pyrazine-2-carboxamide] | – | – | IC50 [1]: 1000 to 10000 nM
11 | Nc1ncc(-c2cccc(CN[C@H]3CCc4ccccc43)c2)nc1C(=O)NCc1ccccc1 [Example 544, 3-amino-6-(3-{[(1S)-2,3-dihydro-1H-inden-1-ylamino]methyl}phenyl)-N-(phenylmethyl)pyrazine-2-carboxamide] | – | 1000 to 10000 nM | –
12 | Nc1ncc(-c2cccc(C(=O)NCc3c(F)ccc(F)c3F)c2)nc1C(=O)N[C@H]1CCCNC1 [Example 1004, 3-amino-N-[(3S)-piperidin-3-yl]-6-[3-({[(2,3,6-trifluorophenyl)methyl]amino}carbonyl)phenyl]pyrazine-2-carboxamide] | – | – | IC50 [1]: < 50 nM
13 | Nc1ncc(-c2cccc(C(=O)NCc3ccccc3)c2)nc1C(=O)N1CCC(N)CC1 [Example 618, 3-{5-amino-6-[(4-aminopiperidin-1-yl)carbonyl]pyrazin-2-yl}-N-(phenylmethyl)benzamide] | – | ≥ 10000 nM | –
14 | C=Cc1ccc(CNCc2cccc(-c3cnc(N)c(C(=O)NC)n3)c2)c(F)c1 [Example 458, 3-amino-6-[3-({[(4-ethenyl-2-fluorophenyl)methyl]amino}methyl)phenyl]-N-methylpyrazine-2-carboxamide] | – | 50 to 1000 nM | –
15 | Nc1ncc(-c2cccc(C(=O)NC(Cc3ccccc3)c3ccccc3)c2)nc1C(=O)N[C@H]1CCCNC1 (stereo partly drawn) [Example 866, 3-amino-6-(3-{[(1,2-diphenylethyl)amino]carbonyl}phenyl)-N-[(3S)-piperidin-3-yl]pyrazine-2-carboxamide] | – | – | IC50 [1]: < 50 nM
16 | Nc1ncc(-c2cccc(C(=O)N[C@H]3CCc4ccccc43)c2)nc1-c1ncn(-c2ccncc2)n1 [Example 813, 3-[5-amino-6-(1-pyridin-4-yl-1H-1,2,4-triazol-3-yl)pyrazin-2-yl]-N-[(1S)-2,3-dihydro-1H-inden-1-yl]benzamide] | – | – | IC50 [1]: 1000 to 10000 nM
17 | CNC(=O)c1nc(-c2cccc(C(=O)NCc3ccc(F)c(F)c3F)c2)cnc1N [Example 281, 3-amino-N-methyl-6-[3-({[(2,3,4-trifluorophenyl)methyl]amino}carbonyl)phenyl]pyrazine-2-carboxamide] | 50 to 1000 nM | – | –
18 | CCCc1ccc(CNC(=O)c2cccc(-c3cnc(N)c(C(=O)NC)n3)c2)cc1 [Example 424, 3-amino-N-methyl-6-[3-({[(4-propylphenyl)methyl]amino}carbonyl)phenyl]pyrazine-2-carboxamide] | 50 to 1000 nM | – | –
19 | CNC(=O)c1nc(-c2cncc(C(=O)NCc3c(F)cccc3F)c2)cnc1N [Example 400, 3-amino-6-[5-({[(2,6-difluorophenyl)methyl]amino}carbonyl)pyridin-3-yl]-N-methylpyrazine-2-carboxamide] | 50 to 1000 nM | – | –
20 | Nc1ncc(-c2cccc(CNC(=O)c3ccco3)c2)nc1C(=O)N[C@H]1CCCNC1 [Example 934, 3-amino-6-(3-{[(furan-2-ylcarbonyl)amino]methyl}phenyl)-N-[(3S)-piperidin-3-yl]pyrazine-2-carboxamide] | – | – | IC50 [1]: < 50 nM

Now from value to compound, other results behind:

Row | IC50 | IC50 (Table 11, Chk1 only) | Structure (SMILES) | also measured
21 | 50 to 1000 nM | – | CNC(=O)c1nc(-c2cccc(CNC(=O)c3cc4ccccc4[nH]3)c2)cnc1N [Example 334, N-[(3-{5-amino-6-[(methylamino)carbonyl]pyrazin-2-yl}phenyl)methyl]-1H-indole-2-carboxamide] | –
22 | 50 to 1000 nM | – | CNC(=O)c1nc(-c2cccc(C(=O)NCc3cc(F)ccc3C)c2)cnc1N [Example 287, 3-amino-6-[3-({[(5-fluoro-2-methylphenyl)methyl]amino}carbonyl)phenyl]-N-methylpyrazine-2-carboxamide] | –
23 | – | 50 to 1000 nM | Nc1ncc(-c2cccc(CO)c2)nc1-c1nnc(-c2ccccc2)[nH]1 [Example 551, {3-[5-amino-6-(5-phenyl-4H-1,2,4-triazol-3-yl)pyrazin-2-yl]phenyl}methanol] | –
24 | – | 50 to 1000 nM | CC(C)(C)c1nnc(-c2nc(-c3cccc(CN[C@H]4CCc5ccccc54)c3)cnc2N)[nH]1 [Example 582, 5-(3-{[(1S)-2,3-dihydro-1H-inden-1-ylamino]methyl}phenyl)-3-[5-(1,1-dimethylethyl)-4H-1,2,4-triazol-3-yl]pyrazin-2-amine] | –
25 | – | ≥ 10000 nM | Nc1ncc(-c2cccc(C(=O)NCc3ccccc3)c2)nc1C(=O)NCCNC(=O)c1ccco1 [Example 659, 3-amino-N-{2-[(furan-2-ylcarbonyl)amino]ethyl}-6-(3-{[(phenylmethyl)amino]carbonyl}phenyl)pyrazine-2-carboxamide] | –
26 | – | ≥ 10000 nM | Nc1ncc(-c2cccc(C(=O)NCc3ccccc3)c2)nc1C(=O)c1ccc(Cl)c(F)c1 [Example 587, 3-{5-amino-6-[(4-chloro-3-fluorophenyl)carbonyl]pyrazin-2-yl}-N-(phenylmethyl)benzamide] | –
27 | 50 to 1000 nM | – | CNC(=O)c1nc(-c2cccc(C(=O)NCc3cc(F)cc4c3OCOC4)c2)cnc1N [Example 208, 3-amino-6-[3-({[(6-fluoro-4H-1,3-benzodioxin-8-yl)methyl]amino}carbonyl)phenyl]-N-methylpyrazine-2-carboxamide] | –
28 | 50 to 1000 nM | – | CNC(=O)c1nc(-c2cccc(C(=O)NCc3cccc(Cl)c3C)c2)cnc1N [Example 293, 3-amino-6-[3-({[(3-chloro-2-methylphenyl)methyl]amino}carbonyl)phenyl]-N-methylpyrazine-2-carboxamide] | –
29 | – | ≥ 10000 nM | Nc1ncc(-c2cccc(C(=O)NCc3ccccc3)c2)nc1C(=O)N1CCN(c2ccc(F)cc2)CC1 [Example 574, 3-(5-amino-6-{[4-(4-fluorophenyl)piperazin-1-yl]carbonyl}pyrazin-2-yl)-N-(phenylmethyl)benzamide] | –
30 | – | 1000 to 10000 nM | Nc1ncc(-c2cccc(CO)c2)nc1-c1nc(C2CCNCC2)n[nH]1 [Example 607, {3-[5-amino-6-(3-piperidin-4-yl-1H-1,2,4-triazol-5-yl)pyrazin-2-yl]phenyl}methanol] | –
31 | – | 50 to 1000 nM | Nc1ncc(-c2cccc(CO)c2)nc1-c1nc(C2CCNC2)n[nH]1 (stereo not drawn) [Example 643, {3-[5-amino-6-(3-pyrrolidin-3-yl-1H-1,2,4-triazol-5-yl)pyrazin-2-yl]phenyl}methanol] | –
32 | – | < 50 nM | CNC(=O)c1nc(-c2cccc(CNC3Cc4cccc(F)c4C3)c2)cnc1N (stereo not drawn) [Example 466, 3-amino-6-(3-{[(4-fluoro-2,3-dihydro-1H-inden-2-yl)amino]methyl}phenyl)-N-methylpyrazine-2-carboxamide] | –
33 | 50 to 1000 nM | – | CNC(=O)c1nc(-c2cccc(C(=O)NCC3CCNCC3)c2)cnc1N [Example 135, 3-amino-N-methyl-6-(3-{[(piperidin-4-ylmethyl)amino]carbonyl}phenyl)pyrazine-2-carboxamide] | –
